Experimental data as given in ChEMBL document CHEMBL1158974, “Iridoids: a new class of leishmanicidal agents from Nyctanthes arbortristis” (J Nat Prod, 1991).
Active and inactive are the calls of the source. The calls are words filed in the database; no cut-off is given here.

Tests used:
[1] = test system: Leishmania donovani; experiment: Antileishmanial activity against Leishmania donovani HOM/IN/80/Dd8 amastigotes infected in Sigmodon hispidus peritoneal macrophages assessed as reduction in infected macrophages at 30 ug/ml; format: functional; conditions: for inhibition at 30 µg/mL: HOM/IN/80/Dd8, in Sigmodon hispidus
[2] = test system: Leishmania donovani; experiment: Antileishmanial activity against Leishmania donovani HOM/IN/80/Dd8 amastigotes infected in Sigmodon hispidus peritoneal macrophages assessed as reduction in average number of amastigotes per infected macrophage at 30 ug/ml; format: functional; conditions: for inhibition at 30 µg/mL: HOM/IN/80/Dd8, in Sigmodon hispidus
[3] = test system: Leishmania donovani; experiment: Antileishmanial activity against Leishmania donovani HOM/IN/80/Dd8 amastigotes infected in Mesocricetus auratus assessed as survival days at 10 mg/kg, ip administered daily for 5 days; format: functional
[4] = Cytotoxicity against Sigmodon hispidus peritoneal macrophages at 60 ug/ml; format: cell-based; conditions: peritoneal macrophage cell
[5] = test system: Leishmania donovani; experiment: Antileishmanial activity against Leishmania donovani HOM/IN/80/Dd8 amastigotes infected in Mesocricetus auratus at 10 mg/kg, ip administered daily for 5 days measured after 7 days; format: functional; conditions: for inhibition in vivo at 10 mg/kg: HOM/IN/80/Dd8, in Mesocricetus auratus, route intraperitoneal
[6] = test system: Leishmania donovani; experiment: Antileishmanial activity against Leishmania donovani HOM/IN/80/Dd8 amastigotes infected in Sigmodon hispidus peritoneal macrophages assessed as reduction in infected macrophages at 100 ug/ml; format: functional
[7] = test system: Leishmania donovani; experiment: Antileishmanial activity against Leishmania donovani HOM/IN/80/Dd8 amastigotes infected in Sigmodon hispidus peritoneal macrophages assessed as reduction in average number of amastigotes per infected macrophage at 100 ug/ml; format: functional
[8] = test system: Leishmania donovani; experiment: Antileishmanial activity against Leishmania donovani HOM/IN/80/Dd8 amastigotes infected in Mesocricetus auratus at 10 mg/kg, ip administered daily for 5 days measured after 28 days; format: functional
[9] = test system: Leishmania donovani; experiment: Antileishmanial activity against Leishmania donovani HOM/IN/80/Dd8 amastigotes infected in Mesocricetus auratus at 100 mg/kg, po administered daily for 5 days; format: functional; conditions: HOM/IN/80/Dd8, in Mesocricetus auratus, 120 h
[10] = test system: Leishmania donovani; experiment: Antileishmanial activity against Leishmania donovani HOM/IN/80/Dd8 amastigotes infected in Sigmodon hispidus peritoneal macrophages assessed as reduction in infected macrophages at 60 ug/ml; format: functional; conditions: HOM/IN/80/Dd8, in Sigmodon hispidus
[11] = test system: Leishmania donovani; experiment: Antileishmanial activity against Leishmania donovani HOM/IN/80/Dd8 amastigotes infected in Sigmodon hispidus peritoneal macrophages assessed as reduction in average number of amastigotes per infected macrophage at 60 ug/ml; format: functional; conditions: HOM/IN/80/Dd8, in Sigmodon hispidus
[12] = test system: Leishmania donovani; experiment: Antileishmanial activity against Leishmania donovani HOM/IN/80/Dd8 amastigotes assessed as minimum effective dose; format: functional, organism-based
[13] = HOM/IN/80/Dd8, in Sigmodon hispidus

Compound | inhibition at 30 µg/mL [1] [%] | inhibition at 30 µg/mL [2] [%] | Survival ([3]; route intraperitoneal) [days] | Activity [4] | inhibition in vivo at 10 mg/kg [5] [%] | inhibition [5] | inhibition [8] | other results
COC(=O)C1=CO[C@@H](O[C@@H]2O[C@H](CO)[C@@H](O)[C@H](O)[C@H]2O)[C@@H]2[C@@H](C)[C@@H](O)[C@@H](O)[C@H]12 | 42.2 | 65.8 | <28 | Toxic | 30.8 | – | – | –
COC(=O)C1=CO[C@@H](O[C@@H]2O[C@H](CO)[C@@H](O)[C@H](O)[C@H]2O)[C@@H]2[C@@H](C)[C@@H](OC(=O)/C=C/c3ccc(O)cc3)[C@@H](O)[C@H]12 [ARBORTRISTOSIDE C] | 39.9 | 67.4 | <28 | Toxic | – | inactive | – | –
COC(=O)C1=CO[C@@H](O[C@@H]2O[C@H](CO)[C@@H](O)[C@H](O)[C@H]2O)[C@@H]2[C@@H](C)[C@@H](OC(=O)/C=C/c3ccc(OC)cc3)[C@@H](O)[C@H]12 [ARBORTRISTOSIDE A] | 7.13 | 45.8 | 38 | – | 18.2 | – | – | inhibition at 100 µg/mL [6, 13]: 30.2%; inhibition at 100 µg/mL [7, 13]: 64.6%; inhibition in vivo at 10 mg/kg ([8]; HOM/IN/80/Dd8, in Mesocricetus auratus, route intraperitoneal): 79.7%; inhibition in vivo at 100 mg/kg [9]: 57%
COC(=O)C1=CO[C@@H](O[C@@H]2O[C@H](CO)[C@@H](O)[C@H](O)[C@H]2O)[C@@H]2[C@@H](CO)[C@@H](OC(=O)/C=C/c3ccc(O)c(O)c3)[C@@H](O)[C@H]12 [ARBORTRISTOSIDE B] | 28.1 | 25.1 | 59 | – | – | inactive | inactive | inhibition at 60 µg/mL [10]: 41.7%; inhibition at 60 µg/mL [11]: 47.3%
sodium stibogluconate | – | – | – | – | – | 71.9% | 93.5% | inhibition [1]: 80%; inhibition [2]: 80%; inhibition [6]: 100%; Survival [3]: < 30 days; MED [12]: 10 mg/kg; inhibition [7]: 100%
